# Target: FtsZ (Escherichia coli, UniProt P0A9A6)
# Experiment: STD NMR and STD NMR competition with GTPγS
# Format: biochemical
# Sequence of FtsZ (P0A9A6 whole entry): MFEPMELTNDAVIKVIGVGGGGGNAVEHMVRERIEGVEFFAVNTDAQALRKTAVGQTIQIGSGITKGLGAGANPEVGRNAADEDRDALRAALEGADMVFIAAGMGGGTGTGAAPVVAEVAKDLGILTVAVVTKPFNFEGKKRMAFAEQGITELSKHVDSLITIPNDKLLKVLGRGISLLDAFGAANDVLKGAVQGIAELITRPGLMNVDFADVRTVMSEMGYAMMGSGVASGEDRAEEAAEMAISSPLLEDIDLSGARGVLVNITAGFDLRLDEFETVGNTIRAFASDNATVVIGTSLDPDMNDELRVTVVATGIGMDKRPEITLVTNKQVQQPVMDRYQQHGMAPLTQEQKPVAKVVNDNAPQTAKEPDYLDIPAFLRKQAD
smiles,measurement,value
"Oc1cc(O)c2c(c1)C/C(Cl)=C\Cc1cc(c(Cl)cc1O)Oc1c(O)cc(cc1O)C/C(Cl)=C\Cc1cc(c(Cl)cc1O)O2 [compound 1, chrysophaentin A]",IC50,6.7 ± 1.7 µg/mL

# From publication PMC2920594 (Journal of the American Chemical Society, 2010)
